Assay results: ChEMBL document CHEMBL4477227, “Synthesis and antibacterial evaluation of macrocyclic diarylheptanoid derivatives” (Bioorg Med Chem Lett, 2016)
In brackets after ≈: the same amount, converted by molar mass.

Key:
[1] = test system: Mycobacterium tuberculosis; test: Antitubercular activity against Mycobacterium tuberculosis H37Rv by microbroth dilution method; assay type: functional; conditions: Mycobacterium tuberculosis, H37Rv; read-out: MIC
[2] = test system: Bacillus anthracis; test: Antibacterial activity against Bacillus anthracis Sterne 34F2 by microbroth dilution method; assay type: functional; conditions: Bacillus anthracis, Sterne 34F2; read-out: MIC
[3] = test system: Enterococcus faecalis; test: Antibacterial activity against Enterococcus faecalis ATCC 33186 by microbroth dilution method; assay type: functional; conditions: Enterococcus faecalis, ATCC 33186; read-out: MIC
[4] = test system: Staphylococcus aureus; test: Antibacterial activity against methicillin-sensitive Staphylococcus aureus ATCC 29213 by microbroth dilution method; assay type: functional; conditions: Staphylococcus aureus, ATCC 29213; read-out: MIC
[5] = test system: Staphylococcus aureus; test: Antibacterial activity against methicillin-resistant Staphylococcus aureus NRS70 by microbroth dilution method; assay type: functional; conditions: Staphylococcus aureus, NRS70; read-out: MIC
[6] = test system: Streptococcus pyogenes; test: Antibacterial activity against Streptococcus pyogenes ATCC 700294 by microbroth dilution method; assay type: functional; conditions: Streptococcus pyogenes, ATCC 700294; read-out: MIC
[7] = test system: Streptococcus pneumoniae; test: Antibacterial activity against Streptococcus pneumoniae R6 by microbroth dilution method; assay type: functional; conditions: Streptococcus pneumoniae, R6; read-out: MIC
[8] = test system: Bacillus subtilis; test: Antibacterial activity against Bacillus subtilis ATCC 23857 by microbroth dilution method; assay type: functional; conditions: Bacillus subtilis, ATCC 23857; read-out: MIC
[9] = test system: Acinetobacter baumannii; test: Antibacterial activity against Acinetobacter baumannii ATCC 19606 by microbroth dilution method; assay type: functional, ATCC 19606 = CIP 70.34 = JCM 6841; conditions: Acinetobacter baumannii, ATCC 19606 = CIP 70.34 = JCM 6841; read-out: MIC
[10] = test system: Escherichia coli; test: Antibacterial activity against Escherichia coli K-12 by microbroth dilution method; assay type: functional
[11] = test system: Escherichia coli; test: Antibacterial activity against Escherichia coli harboring TolC deletion mutant by microbroth dilution method; assay type: functional; conditions: Escherichia coli; read-out: MIC
[12] = test system: Burkholderia cepacia; test: Antibacterial activity against Burkholderia cepacia ATCC 25416 by microbroth dilution method; assay type: functional
[13] = test system: Klebsiella pneumoniae; test: Antibacterial activity against Klebsiella pneumoniae ATCC 33495 by microbroth dilution method; assay type: functional
[14] = test system: Proteus mirabilis; test: Antibacterial activity against Proteus mirabilis ATCC 25933 by microbroth dilution method; assay type: functional
[15] = test system: Proteus vulgaris; test: Antibacterial activity against Proteus vulgaris ATCC 33420 by microbroth dilution method; assay type: functional
[16] = test system: Pseudomonas aeruginosa; test: Antibacterial activity against Pseudomonas aeruginosa PAO1 by microbroth dilution method; assay type: functional
[17] = test system: Vero; test: Cytotoxicity against African green monkey Vero cells assessed as reduction in cell viability after 72 hrs by CellTiterGlo assay; assay type: cell-based; conditions: Chlorocebus sabaeus

Compound | MIC [1] [µg/mL] | MIC [2] [µg/mL] | MIC [3] [µg/mL] | MIC [4] [µg/mL] | MIC [5] [µg/mL] | MIC [6] [µg/mL] | MIC [7] [µg/mL] | MIC [8] [µg/mL] | MIC [9] [µg/mL] | MIC [10] [µg/mL] | MIC [11] [µg/mL] | MIC [12] [µg/mL] | MIC [13] [µg/mL] | MIC [14] [µg/mL] | MIC [15] [µg/mL] | MIC [16] [µg/mL] | IC50 [17] [µg/mL]
COc1ccc2cc1Oc1ccc(cc1)CCC(NCCc1ccc(F)cc1)CCCC2 (stereo unspecified) | 12.5 (≈ 28.8 µM) | 12.5 (≈ 28.8 µM) | 12.5 (≈ 28.8 µM) | 12.5 (≈ 28.8 µM) | 6.25 (≈ 14.4 µM) | 25 (≈ 57.7 µM) | 50 (≈ 115 µM) | 6.25 (≈ 14.4 µM) | 50 (≈ 115 µM) | > 100 | 6.25 (≈ 14.4 µM) | > 100 | > 100 | > 100 | > 100 | > 100 | 3.7 (≈ 8.53 µM)
Oc1ccc2cc1Oc1cc(ccc1O)CCC(NCCc1ccccc1)CCCC2 (stereo unspecified) | 25 (≈ 59.9 µM) | 50 (≈ 120 µM) | 50 (≈ 120 µM) | > 100 | 50 (≈ 120 µM) | 50 (≈ 120 µM) | 50 (≈ 120 µM) | 25 (≈ 59.9 µM) | 50 (≈ 120 µM) | 100 (≈ 239 µM) | 25 (≈ 59.9 µM) | > 100 | > 100 | > 100 | > 100 | > 100 | 11.1 (≈ 26.6 µM)
COc1ccc2cc1Oc1cc(ccc1OC)CCC(NCCc1ccc(F)cc1)CCCC2 (stereo unspecified) | 25 (≈ 53.9 µM) | 25 (≈ 53.9 µM) | 25 (≈ 53.9 µM) | 25 (≈ 53.9 µM) | 12.5 (≈ 27 µM) | 25 (≈ 53.9 µM) | 50 (≈ 108 µM) | 12.5 (≈ 27 µM) | 25 (≈ 53.9 µM) | > 100 | 12.5 (≈ 27 µM) | > 100 | > 100 | > 100 | > 100 | > 100 | 7.3 (≈ 15.7 µM)
COc1ccc2cc1Oc1cc(ccc1OC)CCC(NCCc1ccc(Cl)cc1)CCCC2 (stereo unspecified) | 25 (≈ 52.1 µM) | 12.5 (≈ 26 µM) | 12.5 (≈ 26 µM) | 12.5 (≈ 26 µM) | 12.5 (≈ 26 µM) | 12.5 (≈ 26 µM) | 25 (≈ 52.1 µM) | 6.25 (≈ 13 µM) | 25 (≈ 52.1 µM) | > 100 | 6.25 (≈ 13 µM) | > 100 | > 100 | > 100 | > 100 | > 100 | 6.8 (≈ 14.2 µM)
COc1ccc2cc1Oc1cc(ccc1OC)CCC(NCCc1ccc(Br)cc1)CCCC2 (stereo unspecified) | 25 (≈ 47.7 µM) | 12.5 (≈ 23.8 µM) | 12.5 (≈ 23.8 µM) | 12.5 (≈ 23.8 µM) | 12.5 (≈ 23.8 µM) | 50 (≈ 95.3 µM) | 50 (≈ 95.3 µM) | 6.25 (≈ 11.9 µM) | 50 (≈ 95.3 µM) | > 100 | 12.5 (≈ 23.8 µM) | > 100 | > 100 | > 100 | > 100 | > 100 | 6.9 (≈ 13.2 µM)
COc1ccc2cc1Oc1cc(ccc1OC)CCC(OC(=O)Cc1ccccc1)CCCC2 (stereo unspecified) | > 100 | > 100 | > 100 | > 100 | > 100 | > 100 | > 100 | > 100 | > 100 | > 100 | > 100 | > 100 | > 100 | > 100 | > 100 | > 100 | –
COc1cc2ccc1Oc1cc(ccc1OC)CCCCC(NCCc1ccc(F)cc1)CC2 (stereo unspecified) | 25 (≈ 53.9 µM) | 50 (≈ 108 µM) | 25 (≈ 53.9 µM) | 25 (≈ 53.9 µM) | 25 (≈ 53.9 µM) | 50 (≈ 108 µM) | 25 (≈ 53.9 µM) | 12.5 (≈ 27 µM) | 100 (≈ 216 µM) | > 100 | 25 (≈ 53.9 µM) | > 100 | > 100 | > 100 | > 100 | > 100 | –
COc1ccc2cc1Oc1cc(ccc1OC)CCC(NCCc1ccc3ccccc3c1)CCCC2 (stereo unspecified) | 25 (≈ 50.4 µM) | 12.5 (≈ 25.2 µM) | 12.5 (≈ 25.2 µM) | 12.5 (≈ 25.2 µM) | 6.25 (≈ 12.6 µM) | 12.5 (≈ 25.2 µM) | 25 (≈ 50.4 µM) | 6.25 (≈ 12.6 µM) | > 100 | > 100 | 6.25 (≈ 12.6 µM) | > 100 | > 100 | > 100 | > 100 | > 100 | 7 (≈ 14.1 µM)
COc1ccc2cc1Oc1cc(ccc1OC)CCC(NCc1ccc(C(F)(F)F)cc1)CCCC2 (stereo unspecified) | 25 (≈ 50 µM) | 12.5 (≈ 25 µM) | > 100 | > 100 | 12.5 (≈ 25 µM) | 50 (≈ 100 µM) | > 100 | 12.5 (≈ 25 µM) | > 100 | > 100 | 6.25 (≈ 12.5 µM) | > 100 | > 100 | > 100 | > 100 | > 100 | –
COc1ccc2cc1Oc1cc(ccc1OC)CCC(NC(=O)NCCc1ccc(F)cc1)CCCC2 (stereo unspecified) | > 100 | > 100 | > 100 | > 100 | > 100 | > 100 | > 100 | > 100 | > 100 | > 100 | > 100 | > 100 | > 100 | > 100 | > 100 | > 100 | –
COc1ccc2cc1Oc1cccc(c1)CCC(NCCc1ccc(F)cc1)CC2 (stereo unspecified) | 25 (≈ 61.7 µM) | 50 (≈ 123 µM) | 50 (≈ 123 µM) | 25 (≈ 61.7 µM) | 25 (≈ 61.7 µM) | 50 (≈ 123 µM) | 50 (≈ 123 µM) | 25 (≈ 61.7 µM) | 50 (≈ 123 µM) | > 100 | 12.5 (≈ 30.8 µM) | > 100 | > 100 | > 100 | > 100 | > 100 | –
COc1ccc2cc1Oc1cc(ccc1OC)CCC(N)CCCC2 (stereo unspecified) | 200 (≈ 586 µM) | 100 (≈ 293 µM) | 200 (≈ 586 µM) | 200 (≈ 586 µM) | 200 (≈ 586 µM) | 200 (≈ 586 µM) | 200 (≈ 586 µM) | 100 (≈ 293 µM) | 200 (≈ 586 µM) | 200 (≈ 586 µM) | 100 (≈ 293 µM) | > 100 | > 100 | > 100 | > 100 | > 100 | –
COc1ccc2cc1Oc1cc(ccc1OC)CCC(OS(=O)(=O)c1ccc(C)cc1)CCCC2 (stereo unspecified) | > 100 | > 100 | 100 (≈ 201 µM) | > 100 | 100 (≈ 201 µM) | > 100 | > 100 | > 100 | > 100 | > 100 | > 100 | > 100 | > 100 | > 100 | > 100 | > 100 | –
CCNC1CCCCc2ccc(OC)c(c2)Oc2cc(ccc2OC)CC1 (stereo unspecified) | 100 (≈ 271 µM) | > 100 | > 100 | > 100 | > 100 | > 100 | > 100 | > 100 | > 100 | > 100 | > 100 | > 100 | > 100 | > 100 | > 100 | > 100 | –
COc1ccc2cc1Oc1cc(ccc1OC)CCC(OC(=O)Nc1ccc(F)cc1)CCCC2 (stereo unspecified) | > 100 | > 100 | 50 (≈ 104 µM) | > 100 | 25 (≈ 52.1 µM) | > 100 | > 100 | > 100 | > 100 | > 100 | > 100 | > 100 | > 100 | > 100 | > 100 | > 100 | –
COc1ccc2cc1Oc1cc(ccc1OC)CCC(NC/C=C(\C)CCC=C(C)C)CCCC2 (stereo unspecified) | 12.5 (≈ 26.2 µM) | 12.5 (≈ 26.2 µM) | 12.5 (≈ 26.2 µM) | 12.5 (≈ 26.2 µM) | 6.25 (≈ 13.1 µM) | 25 (≈ 52.3 µM) | 50 (≈ 105 µM) | 3.12 (≈ 6.54 µM) | 25 (≈ 52.3 µM) | 50 (≈ 105 µM) | 6.25 (≈ 13.1 µM) | > 100 | > 100 | > 100 | > 100 | > 100 | 5.6 (≈ 11.7 µM)
COc1ccc2cc1Oc1cccc(c1)CCCCC(NCCc1ccc(F)cc1)CC2 (stereo unspecified) | 25 (≈ 57.7 µM) | 25 (≈ 57.7 µM) | 12.5 (≈ 28.8 µM) | 25 (≈ 57.7 µM) | 12.5 (≈ 28.8 µM) | 50 (≈ 115 µM) | 50 (≈ 115 µM) | 6.25 (≈ 14.4 µM) | 50 (≈ 115 µM) | > 100 | 12.5 (≈ 28.8 µM) | > 100 | > 100 | > 100 | > 100 | > 100 | –
COc1ccc2cc1Oc1cc(ccc1OC)CCC(NCCc1cccc(F)c1)CCCC2 (stereo unspecified) | 25 (≈ 53.9 µM) | 50 (≈ 108 µM) | 25 (≈ 53.9 µM) | 50 (≈ 108 µM) | 25 (≈ 53.9 µM) | 50 (≈ 108 µM) | 50 (≈ 108 µM) | 12.5 (≈ 27 µM) | 50 (≈ 108 µM) | > 100 | 25 (≈ 53.9 µM) | > 100 | > 100 | > 100 | > 100 | > 100 | –
COc1ccc2cc1Oc1cc(ccc1OC)CCC(OS(=O)(=O)c1ccc(OC(F)(F)F)cc1)CCCC2 (stereo unspecified) | > 100 | 100 (≈ 176 µM) | 50 (≈ 88.2 µM) | > 100 | 50 (≈ 88.2 µM) | > 100 | > 100 | > 100 | > 100 | > 100 | > 100 | > 100 | > 100 | > 100 | > 100 | > 100 | –
